Experimental findings from paper PMC6598645 (Chemical Science, 2019) are described below.

*1 amine or outer side, *2 acyl side, *3 side chain or, on linkers, in order; H or OH if unused. Where a SMILES comes first, the peptide text is derived from it. Bridges are numbered along the chain shown (N, C = ends). [ ]: non-standard residue; d: D form. X2 = O=C([C@H](CCNP(=O)(CC[*:3])OCc1ccccc1)N[*:1])[*:2]; Nle = CCCC[C@H](N)C(=O)O

The test system of the test is HeLa cells. As to the kind of experiment: Cellular uptake of CF-labelled peptides, confocal imaging. The class given is cell-based. To be noted: 10 μM mixture of 10% fluorescein (CF) labelled and 90% non-labelled peptides, three hours, 37°C, confocal microscopy.

Consider `CCCC[C@H](NC(=O)[C@H](CCCNC(=N)N)NC(=O)[C@H](CCC(N)=O)NC(=O)[C@@H](NC(=O)[C@H]1CSCCP(=O)(OCc2ccccc2)NCC[C@H](NC(=O)[C@H](CC(C)C)NC(=O)[C@H](CO)NC(=O)[C@H](CCCNC(=N)N)NC(=O)[C@H](CCC(=O)O)NC(=O)[C@H](CCCNC(=N)N)NC(=O)[C@H](Cc2c[nH]cn2)NC(=O)[C@H](CCC(=O)O)NC(=O)[C@H](CC(C)C)NC(=O)[C@H](CCC(N)=O)NC(=O)[C@H](CCC(=O)O)NC(=O)[C@H](CCC(N)=O)NC(=O)[C@H](CO)NC(=O)[C@H](CC(C)C)NC(C)=O)C(=O)N[C@@H]([C@@H](C)O)C(=O)N[C@@H](CC(C)C)C(=O)N[C@@H](CCCNC(=N)N)C(=O)N1)[C@@H](C)CC)C(=O)N[C@@H](CC(C)C)C(=O)N[C@@H](Cc1ccccc1)C(N)=O` (stereo partly drawn) [compound 13, cyclic-benzylphosphonamidate-BCL9-Nle-Aha-DCys peptide] (Ac-LSQEQLEHRERSL[X2]TLR[dC]IQR[Nle]LF-NH2; thioether 14-18; N-terminus and C-terminus assumed), for which the cellular uptake result is “increased cellular uptake”. As for “AcLSQEQLEHRERSL TLR IQRNMLFNH2 (sidechain bridge or staple) [compound 7, RCM-BCL9-Nle peptide]”, the entry is “taken up readily”.
